The subject of test [1] is L1210. The test can be described thus: Compound was evaluated for the inhibition of L1210 murine leukemia cell growth. To be noted: Mus musculus. Format: functional, cell-based.
Test [2] deals with T1, Folylpolyglutamate synthase, mitochondrial (Homo sapiens, UniProt Q05932).
T1 sequence (Q05932 whole entry): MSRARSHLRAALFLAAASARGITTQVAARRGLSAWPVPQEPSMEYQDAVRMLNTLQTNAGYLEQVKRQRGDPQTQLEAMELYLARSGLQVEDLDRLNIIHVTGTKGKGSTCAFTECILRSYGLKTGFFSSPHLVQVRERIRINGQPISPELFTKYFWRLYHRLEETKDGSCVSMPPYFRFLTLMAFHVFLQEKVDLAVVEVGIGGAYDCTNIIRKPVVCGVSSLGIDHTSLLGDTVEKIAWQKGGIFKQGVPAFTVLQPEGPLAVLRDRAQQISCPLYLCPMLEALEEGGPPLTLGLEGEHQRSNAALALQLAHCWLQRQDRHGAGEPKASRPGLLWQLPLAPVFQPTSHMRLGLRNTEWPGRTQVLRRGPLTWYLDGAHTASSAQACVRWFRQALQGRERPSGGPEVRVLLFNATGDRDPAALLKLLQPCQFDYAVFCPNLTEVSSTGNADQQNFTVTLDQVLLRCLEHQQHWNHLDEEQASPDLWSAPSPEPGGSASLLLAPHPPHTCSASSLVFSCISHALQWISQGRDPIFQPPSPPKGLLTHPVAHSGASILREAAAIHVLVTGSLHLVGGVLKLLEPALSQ
The test can be described thus: Compound was evaluated for the inhibitory activity against Folyl-polyglutamate synthase from CCRF-CEM human leukemia cells. Format: cell-based.

The target of test [3] is T2, Dihydrofolate reductase (Mus musculus, UniProt P00375).
T2 sequence (P00375 whole entry): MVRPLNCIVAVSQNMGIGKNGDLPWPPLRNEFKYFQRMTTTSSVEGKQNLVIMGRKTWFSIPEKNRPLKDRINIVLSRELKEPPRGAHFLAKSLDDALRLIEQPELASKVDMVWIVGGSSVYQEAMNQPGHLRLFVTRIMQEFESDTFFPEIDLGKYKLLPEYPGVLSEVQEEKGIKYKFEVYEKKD
As to the kind of experiment: compound was evaluated for the inhibitory activity against Dihydrofolate reductase in permeabilised L1210 cells. It is filed as cell-based.

Test [4] concerns L1210. As to the kind of experiment: Compound was evaluated for the inhibition of L1210 murine leukemia cell growth.(In this study). The note with it: Mus musculus.
The subject of test [5] is L1210. The test can be described thus: Compound was evaluated for the inhibition of L1210 murine leukemia cell growth.(From ref 12b). To be noted: Mus musculus.

Broadly, the IC50 is the midpoint of a concentration-inhibition curve. With `CN(Cc1cnc2nc(N)nc(N)c2n1)c1ccc(C(=O)NC(Cc2cn(CC(=O)O)cn2)C(=O)O)cc1` (configuration not stated), the IC50 in test [1] is 150 nM; in test [2] it was above 200000 nM; in test [3], 370 nM.

For the compound `CN(Cc1cnc2nc(N)nc(N)c2n1)c1ccc(C(=O)NC(Cc2cnc[nH]2)C(=O)O)cc1` (configuration not stated), the IC50 in test [1] was 91 nM; in test [2] it was above 200000 nM; in test [3], 1300 nM.

Turning to `Nc1nc2ncc(CNc3ccc(C(=O)NC(Cc4cnc[nH]4)C(=O)O)cc3)nc2c(=O)[nH]1` (configuration not stated), the IC50 in test [1] was above 100000 nM; in test [2], above 200000 nM; in test [3], above 100000 nM.

In the case of `CN(Cc1cnc2nc(N)nc(N)c2n1)c1ccc(C(=O)N[C@@H](CCC(=O)O)C(=O)O)cc1` [METHOTREXATE], the IC50 is 7 nM in test [4], 3200 nM in test [2] and 1300 nM in test [5].

For the origin of these results see ChEMBL document CHEMBL1129374 (J Med Chem, 1996).
